Data: article PMC12920294, “Optimizing uPAR-targeting radiopeptides for improved tissue distribution: progress towards radionuclide therapy” (European Journal of Nuclear Medicine and Molecular Imaging, 2025)

Columns and labels:
[1] = test system: HEK-uPAR xenograft-bearing mice; conditions: mouse, in vivo
physchem = type: physicochemical; conditions: pH 7.4
Protocol: The ^177Lu-labeled peptides (50 MBq/nmol) were incubated in mouse or human blood plasma (10 MBq/200 µL) over an incubation period of 24 h at 37 °C. Aliquots and control samples of the radiopeptides diluted in saline were analyzed after 1 h, 4 h and 24 h using thin layer chromatography (TLC) as previously reported (Supplementary Material). The distribution coefficients (logD values) of the ^177Lu-labeled peptides (50 MBq/nmol) were determined using a shake-flask method according to a previously published procedure (Supplementary Material). Methods: The radiopeptides (50 MBq/nmol) were diluted in phosphate buffered saline (PBS) pH 7.4 to obtain an activity concentration of 10 MBq/500 µL. A sample of this radiopeptide solution (~0.5 MBq, 25 µL, 0.01 nmol) was added to a mixture of PBS pH 7.4 (1475 µL) and n-octanol (1500 µL). The vials were vortexed vigorously for 1 min followed by centrifugation (560 rcf, 25°C, 6 min) for phase separation. Aliquots were taken from each phase and measured in a γ-counter (Wallac Wizard 1480, PerkinElmer). The distribution coefficients were calculated as the logarithmic value of the ratio of counts per minute (cpm) measured in the n-octanol phase relative to the cpm measured in the PBS phase. The results were listed as average ± SD of the data obtained from 3 independent experiments, each performed with five replicates.

in vivo = conditions: CD1 nude, mouse, 0.5 nmol/mouse, total radioactivity
human uPAR = molecular target: T1, human uPAR (Homo sapiens, UniProt Q03405); assay: uPAR-binding affinity, saturation binding on HEK-uPAR cells; conditions: 4 °C
T1 construct: host or cells: HEK cells transfected with human uPAR (HEK-uPAR)
T1 sequence (Q03405 23-335): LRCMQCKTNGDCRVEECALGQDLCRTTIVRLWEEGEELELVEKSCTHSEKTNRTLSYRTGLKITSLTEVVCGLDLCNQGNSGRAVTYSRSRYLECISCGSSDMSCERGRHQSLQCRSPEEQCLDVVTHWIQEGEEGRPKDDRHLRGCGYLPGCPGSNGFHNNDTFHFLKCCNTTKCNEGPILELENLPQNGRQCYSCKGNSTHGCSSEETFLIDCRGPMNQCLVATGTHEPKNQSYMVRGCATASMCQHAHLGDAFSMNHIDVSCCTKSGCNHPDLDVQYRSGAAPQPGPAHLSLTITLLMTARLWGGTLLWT
Protocol: To determine the uPAR-binding affinity of the radiopeptides, saturation binding experiments were performed according to a previously published procedure using HEK-uPAR cells in 48-well plates (Supplementary Material). The assay was performed on ice (at 4 °C) to prevent target internalization upon binding of the radiopeptides. The cells were incubated with the radiopeptides in the presence or absence of excess AE105 (40 µM) together with the respective radiopeptides at concentrations ranging between 1 nM and 1600 nM. After removal of the supernatant, the HEK-uPAR cells were rinsed and lysed to be measured using a γ-counter (Wallac Wizard 1480, PerkinElmer). The KD values were determined by plotting the specific binding (values of cell samples incubated without AE105 minus the respective values of samples incubated with AE105) against the molar concentration of the added peptide. A nonlinear regression analysis was performed using GraphPad Prism software (version 10.1.1). The results are reported as average of KD values ± SD of n = 3 independent experiments. Methods: HEK-uPAR cells were seeded in poly-D-lysine-coated 48-well plates (0.25 × 10^6 in 0.5 mL per well) using DMEM culture medium with supplements. The cells were incubated at 37 °C and 5% CO2 overnight to allow adhesion and growth. The well plates with HEK-uPAR cells were placed on ice for the entire experiment to prevent internalization of the radiopeptides. After removal of the medium, the HEK-uPAR cells were rinsed with cold PBS (0.5 mL, pH 7.4) followed by the addition of DMEM culture medium without supplements (450 µL/well) in the presence or absence of AE105 (final concentration 40 µM) as a receptor blocking agent. The cells were incubated for 30 min on ice. The respective radiopeptides (5 MBq/nmol) were diluted in PBS at peptide concentrations 10‒16000 nM. A volume of 50 µL from each dilution was added to each well to obtain peptide concentrations in the range of […]. The assay was performed at 4 °C on ice, to prevent internalization of the radiopeptides. The radiopeptides were incubated on cells for 1 h on a shaker before rinsing twice with PBS (0.5 mL, pH 7.4). Increasing ligand concentrations were used to approximate saturation of the binding sites (Bmax value) at equilibrium. Ligand depletion effects of the ligand concentration in the supernatant of the cell samples were not taken into account. The cells were lysed using an aqueous NaOH solution (1 M, 600 µL) and the lysates were transferred to radioimmunoassay tubes for counting the activity in a γ-counter (Wallac Wizard 1480, PerkinElmer). The KD values were determined by plotting the specific binding (total binding minus unspecific binding) against the molar concentration of the added radiopeptide using GraphPad Prism software (version 10.1.1). The results were then expressed as average ± SD of n = 3 independent experiments.

AUC0h→48h, HEK-uPAR xenograft [1]: 410 ± 21 % IA/g*h
AUC0h→48h, blood [1]: 109 ± 6 % IA/g*h
AUC0h→48h, kidneys [1]: 103 ± 5 % IA/g*h
AUC0h→48h, liver [1]: 38 ± 2 % IA/g*h
Blood AUC0h→48h relative to [177Lu]Lu-DOTA-AE105 [1]: 3.9 fold
HEK-uPAR xenograft AUC0h→48h relative to [177Lu]Lu-DOTA-AE105 [1]: 16 fold
Kidneys AUC0h→48h relative to [177Lu]Lu-DOTA-AE105 [1]: ~ 1.7 fold
Liver AUC0h→48h relative to [177Lu]Lu-DOTA-AE105 [1]: ~ 5.5 fold
Xenograft-to-blood AUC0h→48h ratio relative to [177Lu]Lu-DOTA-AE105 [1]: 4.2 fold
logD (physchem): -0.26 ± 0.09
tissue uptake at 1 h (in vivo; Blood uptake): 13 ± 2 %ID/g
tissue uptake at 4 h (in vivo; Blood uptake): 5 ± 0.6 %ID/g
tissue uptake at 24 h (in vivo; Blood uptake): < 0.03 %ID/g
tissue uptake at 48 h (in vivo; Blood uptake): < 0.03 %ID/g
tissue uptake at 1 h (in vivo; Bone uptake): 1.7 ± 0.4 %ID/g
tissue uptake at 4 h (in vivo; Bone uptake): 0.73 ± 0.06 %ID/g
tissue uptake at 24 h (in vivo; Bone uptake): 0.19 ± 0.03 %ID/g
tissue uptake at 48 h (in vivo; Bone uptake): 0.11 ± 0.02 %ID/g
tissue uptake at 1 h (in vivo; Brain uptake): 0.28 ± 0.03 %ID/g
tissue uptake at 4 h (in vivo; Brain uptake): 0.12 ± 0.23 %ID/g
tissue uptake at 24 h (in vivo; Brain uptake): < 0.03 %ID/g
tissue uptake at 48 h (in vivo; Brain uptake): < 0.03 %ID/g
tissue uptake at 1 h (in vivo; HEK-uPAR xenograft uptake): 13 ± 2 %ID/g
tissue uptake at 4 h (in vivo; HEK-uPAR xenograft uptake): 16 ± 2 %ID/g
tissue uptake at 24 h (in vivo; HEK-uPAR xenograft uptake): 7.9 ± 0.9 %ID/g
tissue uptake at 48 h (in vivo; HEK-uPAR xenograft uptake): 5.3 ± 0.7 %ID/g
tissue uptake at 1 h (in vivo; Heart uptake): 4.9 ± 0.3 %ID/g
tissue uptake at 4 h (in vivo; Heart uptake): 1.8 ± 0.2 %ID/g
tissue uptake at 24 h (in vivo; Heart uptake): 0.12 ± 0.02 %ID/g
tissue uptake at 48 h (in vivo; Heart uptake): 0.08 ± 0.01 %ID/g
tissue uptake at 1 h (in vivo; Intestines uptake): 1.8 ± 0.2 %ID/g
tissue uptake at 4 h (in vivo; Intestines uptake): 0.93 ± 0.11 %ID/g
tissue uptake at 24 h (in vivo; Intestines uptake): 0.19 ± 0.01 %ID/g
tissue uptake at 48 h (in vivo; Intestines uptake): 0.14 ± 0.03 %ID/g
tissue uptake at 1 h (in vivo; Kidneys uptake): 6.8 ± 0.9 %ID/g
tissue uptake at 4 h (in vivo; Kidneys uptake): 4 ± 0.4 %ID/g
tissue uptake at 24 h (in vivo; Kidneys uptake): 1.3 to 1.7 %ID/g
tissue uptake at 48 h (in vivo; Kidneys uptake): 1.1 ± 0.1 %ID/g
tissue uptake at 1 h (in vivo; Liver uptake): 4.5 ± 0.3 %ID/g
tissue uptake at 4 h (in vivo; Liver uptake): 1.8 ± 0.2 %ID/g
tissue uptake at 24 h (in vivo; Liver uptake): 0.33 ± 0.03 %ID/g
tissue uptake at 48 h (in vivo; Liver uptake): 0.25 ± 0.02 %ID/g
tissue uptake at 1 h (in vivo; Lung uptake): 7 ± 1.3 %ID/g
tissue uptake at 4 h (in vivo; Lung uptake): 3.1 ± 0.2 %ID/g
tissue uptake at 24 h (in vivo; Lung uptake): 0.29 ± 0.08 %ID/g
tissue uptake at 48 h (in vivo; Lung uptake): 0.17 ± 0.02 %ID/g
tissue uptake at 1 h (in vivo; Muscle uptake): 1.4 ± 0.3 %ID/g
tissue uptake at 4 h (in vivo; Muscle uptake): 0.63 ± 0.09 %ID/g
tissue uptake at 24 h (in vivo; Muscle uptake): 0.05 %ID/g
tissue uptake at 48 h (in vivo; Muscle uptake): 0.04 ± 0.01 %ID/g
tissue uptake at 1 h (in vivo; Pancreas uptake): 1.7 ± 0.2 %ID/g
tissue uptake at 4 h (in vivo; Pancreas uptake): 0.69 ± 0.05 %ID/g
tissue uptake at 24 h (in vivo; Pancreas uptake): 0.09 ± 0.02 %ID/g
tissue uptake at 48 h (in vivo; Pancreas uptake): 0.07 ± 0.02 %ID/g
tissue uptake at 1 h (in vivo; Salivary glands uptake): 2.9 ± 0.5 %ID/g
tissue uptake at 4 h (in vivo; Salivary glands uptake): 1.3 ± 0.2 %ID/g
tissue uptake at 24 h (in vivo; Salivary glands uptake): 0.17 ± 0.02 %ID/g
tissue uptake at 48 h (in vivo; Salivary glands uptake): 0.18 ± 0.04 %ID/g
tissue uptake at 1 h (in vivo; Spleen uptake): 2.2 ± 0.3 %ID/g
tissue uptake at 4 h (in vivo; Spleen uptake): 1.1 ± 0.1 %ID/g
tissue uptake at 24 h (in vivo; Spleen uptake): 0.49 ± 0.05 %ID/g
tissue uptake at 48 h (in vivo; Spleen uptake): 0.37 ± 0.05 %ID/g
tissue uptake at 1 h (in vivo; Stomach uptake): 1.8 ± 0.5 %ID/g
tissue uptake at 4 h (in vivo; Stomach uptake): 0.75 ± 0.19 %ID/g
tissue uptake at 24 h (in vivo; Stomach uptake): 0.12 ± 0.01 %ID/g
tissue uptake at 48 h (in vivo; Stomach uptake): 0.09 %ID/g
Kd (human uPAR): 37 ± 11 nM
Structure (SMILES): Cc1ccc(CCCC(=O)NCCOCCOCCOCCOCCC(=O)NCCCC[C@H](NC(=O)CN2CCN(CC(=O)O)CCN(CC(=O)O)CCN(CC(=O)O)CC2)C(=O)N[C@@H](CC(=O)O)C(=O)N[C@@H](CC2CCCCC2)C(=O)N[C@@H](Cc2ccccc2)C(=O)N[C@H](CO)C(=O)N[C@H](CCCNC(=N)N)C(=O)N[C@@H](Cc2ccc(O)cc2)C(=O)N[C@@H](CC(C)C)C(=O)N[C@@H](Cc2c[nH]c3ccccc23)C(=O)N[C@@H](CO)C(N)=O)cc1 [[^177Lu]Lu-uPAR-11, metal not drawn]
